Assays:
[1] = test system: Reconstructed human epidermises; assay: Deiminated proteins in horny layer of reconstructed epidermises after topical gel, immunohistology (AMC); format: cell-based; settings: gel containing 3% acefylline as sodium salt, 24 hours
Experimental: Reconstructed human epidermises 0.33 cm^2 in size were grown at the air-liquid interface for 14 days. 5 mg/cm^2 of pre-formulas containing the various active agents was then applied homogeneously to their surface using a brush. Triplicates were carried out for a treatment period of 24 hours at 37° C. The epidermises were then divided: half were frozen in Tissue Tek and then 6 μm cryo-sections were made for immunohistology; the other half were dry frozen at −80° C. for the preparation of total protein extracts before analysis by Western blot.
The deiminated proteins were immunodetected as described above after incubation in modification buffer. Negative controls were prepared systematically by omitting the modification. After washing with water, the sections were incubated with AMC anti-citrulline antibody diluted to 1/1000. Finally, counter-staining was carried out with hematoxylin.

PAD1 = molecular target: T1, PAD1 (Homo sapiens, UniProt Q9ULC6); assay: Deimination of recombinant human filaggrin (Fil-His) by PAD1, immunodetection with AMC anti-citrulline antibody; format: biochemical; settings: 5 mM streptomycin vs solvent alone (1% dimethylsulfoxide); 3 or 5 min incubation
T1 construct: purchased Professor Hidenari Takahara (University of Ibaraki, Japan)
T1 sequence (Q9ULC6 1-663): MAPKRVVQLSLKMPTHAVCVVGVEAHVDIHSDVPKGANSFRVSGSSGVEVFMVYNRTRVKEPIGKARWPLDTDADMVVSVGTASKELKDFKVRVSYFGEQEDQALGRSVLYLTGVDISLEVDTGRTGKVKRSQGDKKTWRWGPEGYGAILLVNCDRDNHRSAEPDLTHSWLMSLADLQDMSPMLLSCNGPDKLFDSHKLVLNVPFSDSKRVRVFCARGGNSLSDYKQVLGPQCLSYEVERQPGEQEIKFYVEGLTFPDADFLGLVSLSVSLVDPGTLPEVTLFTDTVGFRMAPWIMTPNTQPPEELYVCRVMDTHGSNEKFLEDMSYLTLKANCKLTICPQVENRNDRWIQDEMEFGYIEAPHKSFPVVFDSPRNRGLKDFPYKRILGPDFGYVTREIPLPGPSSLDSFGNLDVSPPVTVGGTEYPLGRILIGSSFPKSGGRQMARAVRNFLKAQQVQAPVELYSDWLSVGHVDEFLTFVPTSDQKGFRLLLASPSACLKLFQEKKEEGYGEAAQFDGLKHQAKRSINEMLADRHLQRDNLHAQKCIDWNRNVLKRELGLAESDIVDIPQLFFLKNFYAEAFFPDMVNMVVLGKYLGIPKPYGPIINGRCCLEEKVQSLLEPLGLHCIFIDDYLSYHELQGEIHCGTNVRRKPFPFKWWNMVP
Experimental: 25 ng of Fil-His was incubated at 50° C. in the presence of 40 mU of PAD1 or PAD3 in deimination buffer (10 mM CaCl2, 5 mM dithiothreitol, 50 mM Tris-HCl pH 7.4). After a variable incubation period according to the PAD isoform (generally 2 to 5 minutes for PAD1 and 60 to 180 minutes for PAD3), the reaction was quenched by adding sample buffer. The proteins were then separated by SDS-PAGE and immunodetected by AHF11 anti-filaggrin monoclonal antibody and AMC modified anti-citrulline antibody (Millipore, Mollsheim, France) diluted to 1/5000.
The deimination of Fil-His (25 ng) was carried out as described above (paragraph A.3), in deimination buffer (10 mM CaCl2, 5 mM dithiothreitol, 50 mM Tris-HCl pH 7.4) at 50° C. in the presence of 40 mU of PAD1 or PAD3, for 0, 3, 5, 60 and 180 minutes. […] In certain cases, the active agents were diluted in water. After incubation, the proteins of the reaction mixture were immunodetected by AMC antibody. The immunodetection intensity was quantified by densitometry with the NIH ImageJ software.

Row | Effect on PAD1 (AMC immunodetection intensity of deiminated Fil-His) (PAD1) | Compound | Immunodetection intensity (AMC staining) of the horny layer vs control gel [1]
1 |  | Cn1c(=O)c2c(ncn2CC(=O)[O-])n(C)c1=O.[Na+] [acefylline in the form of sodium salt] | stronger
2 | inhibited | [H]/N=C(/N)N[C@H]1[C@H](O)[C@@H](O)[C@H](O[C@@H]2O[C@@H](C)[C@](O)(C=O)[C@H]2O[C@@H]2O[C@@H](CO)[C@H](O)[C@@H](O)[C@@H]2NC)[C@@H](N/C(N)=N\[H])[C@@H]1O [streptomycin] | 
